Measured values from publication PMC6270661, “Antileishmanial Lead Structures from Nature: Analysis of Structure-Activity Relationships of a Compound Library Derived from Caffeic Acid Bornyl Ester” (Molecules, 2014).

Assays:
[1] = system: L. donovani promastigotes; experiment: Quantitative colorimetric assay against L. donovani promastigotes; type: cell-based; conditions: mean of two independent experiments
Protocol: (§1) Antileishmanial activities of the synthesized compounds were evaluated in L. major promastigotes as described before and in L. donovani promastigotes according to Hazra et al.. […] The antiprotozoal activities are presented in Table 1, Table 2 and Table 3 as inhibitory concentrations (IC50). […] Materials and methods for the biological assays have been described before by the authors. […] The protocol for the L. donovani quantitative colorimetric assay is outlined by Hazra et al.. The IC50 values are presented as mean values of two independent experiments against the parasite and macrophages.

L. major amastigotes = experiment: L. major amastigote assay; type: cell-based, Leishmania major; conditions: for IC50: Leishmania major; for Selectivity index SI: SI = IC50 for BMDM/IC50 for L. major (amastigotes)
[2] = Cytotoxicity against bone marrow derived macrophages (BMDM); type: cell-based, murine; conditions: mouse
Description: The amastigote is the intracellular pathogenic form of the parasite in the vertebrate host and therefore the important target. […] With regard to antileishmanial activity cinnamic acid menthyl (20) and […] (19) show good activities combined with low cytotoxicity. […] Materials and methods for the biological assays have been described before by the authors. […] The protocol for the L. donovani quantitative colorimetric assay is outlined by Hazra et al.. The IC50 values are presented as mean values of two independent experiments against the parasite and macrophages.

[3] = system: cysteine-cathepsin (L. major promastigote full-lysate); experiment: Cysteine-cathepsin fluorescence activity assay with L. major promastigote full-lysate; type: biochemical, Leishmania major; conditions: preliminary experiments, result in words
[4] = AlamarBlue cytotoxicity assay on J774.1 macrophages; type: cell-based, murine; conditions: mouse, J774.1 macrophage cell line, mean of two independent experiments
L. major promastigotes = experiment: AlamarBlue assay, antileishmanial activity against L. major promastigotes; type: cell-based, Leishmania major; conditions: for IC50: mean of two independent experiments; for Selectivity index SI: SI = IC50 for J774.1/IC50 for L. major (promastigotes)
Protocol: as §1

J774.1 murine cell line = experiment: AlamarBlue cytotoxicity assay on J774.1 macrophages; type: cell-based

| Compound | IC50 ([1]; Leishmania donovani) [µM] | IC50 (L. major promastigotes; Leishmania major) [µM] | melting point [°C] | IC50 [4] [µM] | further results |
| --- | --- | --- | --- | --- | --- |
| CC1(C)C2CCC1(C)[C@H](OC(=O)/C=C/c1ccc(O)c(O)c1)C2 (stereo partly drawn) [Compound 1, Caffeic Acid (−)-bornyl Ester] | 27.3 | 48.8 | – | 8.3 | IC50 (L. major amastigotes): 47.6 µM; Selectivity index SI (L. major amastigotes): 0.1; IC50 [2]: 5.3 µM; protease inhibitory activity [3]: showed protease inhibitory activity |
| O=C(/C=C/c1ccccc1)OC1CCCCC1 [Compound 23, Cinnamic Acid Cyclohexyl Ester] | 23.4 | > 100 | – | > 100 | – |
| O=C(/C=C/c1ccccc1)OC12CC3CC(CC(C3)C1)C2 [Compound 21, Cinnamic Acid Adamantyl Ester] | > 100 | 60 | 66 | 46.7 | – |
| CC1CCC(C(C)C)C(OC(=O)/C=C/c2ccccc2)C1 (stereo not drawn) [Compound 20, Cinnamic Acid Menthyl Ester] | 79.7 | 53.1 | – | 44.8 | IC50 (L. major amastigotes): 19.5 µM; Selectivity index SI (L. major amastigotes): >6.4; IC50 [2]: > 126 µM |
| COc1ccc(/C=C/C(=O)Oc2cc(C)ccc2C(C)C)cc1O [Compound 11, Isoferulic Acid Thymyl Ester] | 79.6 | 59.8 | – | 45.6 | – |
| O=C(/C=C/c1ccccc1)Oc1ccc2ccccc2c1 [Compound 22] | 28.7 | 67 | 109 to 110 | 44.5 | – |
| CC(C)=CCCC(C)(OC(=O)C=Cc1ccccc1)C1CC=C(C)CC1 (stereo not drawn) [Compound 24, Cinnamic Acid Bisabolyl Ester] | > 100 | > 100 | – | > 100 | – |
| C[C@@H]1[C@H](O)[C@@H](C)/C=C/C=C/C=C/C=C/C=C/C=C/C=C/[C@H](O[C@@H]2O[C@H](C)[C@@H](O)[C@H](N)[C@@H]2O)C[C@@H]2O[C@](O)(C[C@@H](O)C[C@@H](O)[C@H](O)CC[C@@H](O)C[C@@H](O)CC(=O)O[C@H]1C)C[C@H](O)[C@H]2C(=O)O [amphotericin B, reference compound] | 0.4 | – | – | – | – |
| CC1(C)C2CCC1(C)C(OC(=O)C=Cc1ccccc1)C2 (stereo not drawn) [Compound 15, Cinnamic Acid (−)-Bornyl Ester] | – | 39.6 | – | 45.2 | IC50 (L. major amastigotes): 10.9 µM; Selectivity index SI (L. major amastigotes): 5.0; IC50 [2]: 54.3 µM; protease inhibitory activity [3]: showed protease inhibitory activity; Selectivity index SI (L. major promastigotes): 1.1 |
| CC1(C)C2CCC1(C)C(OC(=O)CCc1ccccc1)C2 (stereo not drawn) [Compound 27] | – | 50.2 | – | > 100 | cytotoxicity J774.1 (in words) (J774.1 murine cell line; result in words): did not show cytotoxicity; Selectivity index SI (L. major promastigotes): >2.0 |
| Cc1ccc(C(C)C)c(OC(=O)/C=C/c2ccccc2)c1 [Compound 19, Cinnamic Acid Thymyl Ester] | > 100 | 55 | – | 44.8 | IC50 (L. major amastigotes): 49.1 µM; Selectivity index SI (L. major amastigotes): >3.0; IC50 [2]: > 148 µM |
| COc1ccc(/C=C/C(=O)OC2CC(C)CCC2C(C)C)cc1O (stereo not drawn) [Compound 13, Isoferulic Acid Menthyl Ester] | > 100 | 54.2 | – | 44.6 | – |
| Cc1ccc(C(C)C)c(OC(=O)/C=C/c2ccc(O)c(O)c2)c1 [Compound 10, Caffeic Acid Thymyl Ester] | 42.1 | 57.6 | 115 to 117 | 9.5 | IC50 (L. major amastigotes): 54.1 µM; Selectivity index SI (L. major amastigotes): 0.2; IC50 [2]: 9.8 µM |
| CC1CCC(C(C)C)C(OC(=O)/C=C/c2ccc(O)c(O)c2)C1 (stereo not drawn) [Compound 12, Caffeic Acid Menthyl Ester] | 79.4 | 59.5 | – | 1.95 | – |
| COc1ccc(/C=C/C(=O)OC2CC3CCC2(C)C3(C)C)cc1O (stereo not drawn) [Compound 2, Isoferulic Acid (−)-bornyl Ester] | – | – | – | – | IC50 [1]: 41.3 µM; IC50 (L. major amastigotes): 39.2 µM; Selectivity index SI (L. major amastigotes): 1.2; IC50 [2]: 49 µM; IC50 (J774.1 murine cell line; mean of two independent experiments): 48.7 µM; IC50 (L. major promastigotes): 64.4 µM |
| C=CCc1ccc(OC(=O)/C=C/c2ccccc2)c(OC)c1 [Compound 25, Cinnamic Acid Eugenyl Ester] | 80.3 | > 100 | – | 32.2 | – |
| CC(=O)Oc1ccc(/C=C/C(=O)O[C@@H]2CC3CCC2(C)C3(C)C)cc1OC(C)=O (stereo partly drawn) [Compound 28, 3-(3,4-Bis(acetyloxy))phenyl Propenoic Acid (−)-Bornyl Ester] | – | 30.7 | – | 2.1 | – |
| N=C(N)c1ccc(OCCCCCOc2ccc(C(=N)N)cc2)cc1 [pentamidine, reference compound] | – | 82 | – | 38.6 | – |
| CCCCCCCCCCCCCCCCOP(=O)([O-])OCC[N+](C)(C)C [miltefosine, reference compound] | – | 36.2 | – | 56.5 | IC50 (L. major amastigotes): 33 µM; Selectivity index SI (L. major amastigotes): 2.0; IC50 [2]: 65.5 µM |
| CC(C)=CCC/C(C)=C/COC(=O)/C=C/c1ccccc1 [Compound 26, Cinnamic Acid Geranyl Ester] | 41.9 | > 100 | – | > 100 | – |

Now from value to compound, other results behind:

| IC50 ([1]; Leishmania donovani) [µM] | IC50 (L. major promastigotes; Leishmania major) [µM] | melting point [°C] | Compound | IC50 [4] [µM] | further results |
| --- | --- | --- | --- | --- | --- |
| > 100 | > 100 | 114 to 116 | CN(C)c1ccc(C=CC(=O)OC2CC3CCC2(C)C3(C)C)cc1 (stereo not drawn) [Compound 5, 4-N-Dimethylaminocinnamic Acid (−)-bornyl Ester] | > 100 | – |
| 34.8 | 45.8 | – | CC1(C)C2CCC1(C)C(OC(=O)C=Cc1ccc(O)c(O)c1)C2 (stereo not drawn) [Compound 7, Caffeic Acid Isobornyl Ester] | 8.8 | IC50 (L. major amastigotes): 47 µM; Selectivity index SI (L. major amastigotes): 0.2; IC50 [2]: 10.9 µM |
| > 100 | > 100 | 93 to 95 | CC1(C)C2CCC1(C)C(OC(=O)C=Cc1ccc(OCc3ccccc3)cc1)C2 (stereo not drawn) [Compound 6] | > 100 | – |
| 74.5 | 60.6 | – | COc1ccc(C=CC(=O)OC2CC3CCC2(C)C3(C)C)cc1O (stereo not drawn) [Compound 8, Isoferulic Acid Isobornyl Ester] | 44.3 | – |
| > 100 | 60.9 | 87 to 90 | COc1ccc(/C=C/C(=O)O[C@@H]2CC3CCC2(C)C3(C)C)cc1 (stereo partly drawn) [Compound 16, 4-Methoxycinnamic Acid (−)-Bornyl Ester] | 42.6 | – |
| > 100 | > 100 | 71 to 74 | CC1(C)C2CCC1(C)C(OC(=O)C=Cc1ccc(Br)cc1)C2 (stereo not drawn) [Compound 4, 4-Bromocinnamic Acid (−)-bornyl Ester] | 54.6 | – |
| > 100 | > 100 | 121 to 123 | CC1(C)C2CCC1(C)C(OC(=O)C=Cc1ccc([N+](=O)[O-])cc1)C2 (stereo not drawn) [Compound 9, 4-Nitrocinnamic Acid Isobornyl Ester] | > 100 | – |
| 51.2 | 64.3 | – | CC1(C)C2CCC1(C)[C@@H](OC(=O)/C=C/c1ccccc1)C2 (stereo partly drawn) [Compound 18, Cinnamic Acid Isobornyl Ester] | 46 | – |
| > 100 | 71.2 | 80 to 83 | CC1(C)C2CCC1(C)C(OC(=O)C=Cc1ccc(Cl)cc1)C2 (stereo not drawn) [Compound 3, 4-Chlorocinnamic Acid (−)-bornyl Ester] | 49.5 | – |
| > 100 | 80.5 | 90 to 92 | CC1(C)C2CCC1(C)[C@H](OC(=O)/C=C/c1ccc(Cl)cc1Cl)C2 (stereo partly drawn) [Compound 17, 2,4-Dichlorocinnamic Acid (−)-bornyl Ester] | 60.6 | – |
| > 100 | 65.6 | 86 to 87 | CC1(C)C2CCC1(C)[C@H](OC(=O)/C=C/c1cccc(Cl)c1Cl)C2 (stereo partly drawn) [Compound 14, 2,3-Dichlorocinnamic acid (−)-bornyl ester] | 58.9 | – |
